Experimental data published in publication PMC7204524 (Tetrahedron, 2020).

Target: T1, T. brucei methionyl-tRNA synthetase (TbMetRS) (Trypanosoma brucei, UniProt Q38C91)
T1 sequence (Q38C91 1-773): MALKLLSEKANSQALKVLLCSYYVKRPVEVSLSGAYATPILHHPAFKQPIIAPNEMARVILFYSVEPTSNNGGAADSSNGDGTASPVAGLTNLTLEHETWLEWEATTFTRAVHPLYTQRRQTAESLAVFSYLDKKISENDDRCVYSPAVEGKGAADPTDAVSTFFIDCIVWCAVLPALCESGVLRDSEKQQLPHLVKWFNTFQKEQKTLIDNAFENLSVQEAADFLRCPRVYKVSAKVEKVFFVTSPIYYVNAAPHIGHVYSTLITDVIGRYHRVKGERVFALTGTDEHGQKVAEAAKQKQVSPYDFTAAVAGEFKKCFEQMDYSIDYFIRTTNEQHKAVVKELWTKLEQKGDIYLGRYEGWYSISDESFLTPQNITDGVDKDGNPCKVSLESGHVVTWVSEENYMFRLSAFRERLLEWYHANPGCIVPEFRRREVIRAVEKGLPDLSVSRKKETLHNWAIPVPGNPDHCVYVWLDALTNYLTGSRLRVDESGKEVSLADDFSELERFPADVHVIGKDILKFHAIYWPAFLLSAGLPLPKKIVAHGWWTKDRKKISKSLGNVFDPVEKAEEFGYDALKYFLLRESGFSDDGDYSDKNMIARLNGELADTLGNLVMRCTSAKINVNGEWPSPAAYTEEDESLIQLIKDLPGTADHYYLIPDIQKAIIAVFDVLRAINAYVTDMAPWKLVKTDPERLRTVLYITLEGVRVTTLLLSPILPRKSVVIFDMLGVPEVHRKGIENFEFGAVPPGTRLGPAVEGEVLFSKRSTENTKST
Assay: colorimetric pyrophosphatase-coupled inhibition assay
Format: biochemical

In the case of C[C@@H](O)[C@@H]1C(=O)N(CCc2c[nH]c3ccccc23)CC[C@@H]1N(C)Cc1cc(Cl)cc(Cl)c1 (racemic) [14a, (3R,4S)-1-(2-(1H-Indol-3-yl)ethyl)-4-((3,5-dichlorobenzyl)(methyl)amino)-3-((R)-1-hydroxyethyl)piperidin-2-one], the “%” value is reported as 15–30 % inhibition at 200 μM.
